In patent publication EP0240392A1, “Compounds of the cyclophosphazene type, process for their preparation and pharmaceutical preparation containing them” (CENTRE NATIONAL DE LA RECHERCHE SCIENTIFIQUE (CNRS), priority 1986, dated 1987):
Read-outs that look alike come from different tables or passages of the source. Marks after values point to notes of the source that are not given here.

What was measured:
[1] = Acute toxicity i.p. in mice (DLo, maximal non-lethal dose); type: in vivo, souris mâles Swiss ou CD2F1
Procedure: La toxicité de SPM a été déterminée sur des souris mâles Swiss ou CD2F1. La léthalité, quand elle existe, apparaît systématiquement aux jours 5 et 6 après l'adminstration par voie i.p. L'enregistrement de cette léthalité en fonction de la dose injectée permet de déduire la DLo qui est la dose maximale non léthale. La même valeur de DLo a été obtenue chez les Swiss et les CD2F1 : elle a été trouvée égale à 1 500 mg/kg. C'est là un résultat remarquable.

ERYTH[…] K562 = experiment: Growth of human erythroleukemia K562 in vitro; type: cell-based, humaine
[2] = test system: CARCINOME MAMMAIRE LIGNEE 16; experiment: Antitumour activity on mammary carcinoma line 16 implanted i.m. in mice; type: in vivo, souris 3CH
Description: (§1) Les tests d'activité antitumorale ont été conduits au sein du Screening and Pharmacology Group de l'E.O.R.T.C., implanté à l'Institut Mario Negri de Milan.
(§2) Ces essais ont été conduits soit en mono-injection à différentes doses au jour J+1 suivant la greffe de la tumeur, soit en poly-injections chroniques Q1D, soit en protocoles Q4D.
(§3) L'activité antitumorale est mesurée par le rapport T/C %, T (en jours) étant le durée moyenne de vie des souris traitées, C (en jours) étant la durée moyenne de vie des souris témoins.
(§4) L'effet thérapeutique est considéré comme significatif quant T/C % est supérieur ou égal à 125.

[3] = test system: LEUCEMIE P388 INTRACEREBRALE; experiment: Antitumour activity on intracerebral P388 leukemia in mice; type: in vivo, souris CD2F1; conditions: Tableau 2, inoculation i.c.
Description: as §1, §2, §3, §4

MELANOME B16 = experiment: Antitumour activity on B16 melanoma implanted i.m. in mice; type: in vivo, souris C57B1/6
Description: as §1, §2, §3, §4

[4] = Solubility in water and physiological serum; type: physicochemical
Description: La solubilité dans l'eau et dans le sérum physiologique est supérieure à 20 g/l ce qui est donc largement suffisant pour la réalisation de formes injectables.

[5] = 200 mg/kg i.p. j 1,5,9, jour 26
[6] = 300 mg/kg i.p. j 1,5,9, jour 26
[7] = 200 mg/kg i.p. j 1,5,9, jour 27
[8] = 300 mg/kg i.p. j 1,5,9, jour 27

Question: Which “DLo (dose maximale non léthale)” value ([1]; souris mâles CD2F1, i.p.) does the source give for `C(CCN1CCCNP12=NP(N1CC1)(N1CC1)=NP(N1CC1)(N1CC1)=N2)CN1CCCNP12=NP(N1CC1)(N1CC1)=NP(N1CC1)(N1CC1)=N2` (centres unmarked) [SPM] here?
Answer: 1 500 mg/kg

Question: And the “DLo (dose maximale non léthale)” value ([1]; souris mâles Swiss, i.p.)?
Answer: 1 500 mg/kg

Question: What about the “Nombre de cellules x 10^4” value (ERYTH[…] K562; 0,01 µg/ml, 24 heures) of the same compound?
Answer: 20,7 ± 1,7 x 10^4

Question: And the “Nombre de cellules x 10^4” value (ERYTH[…] K562; 0,1 µg/ml, 24 heures)?
Answer: 17,8 ± 1,7 x 10^4

Question: What about the “Nombre de cellules x 10^4” value (ERYTH[…] K562; 0,01 µg/ml, 48 heures) of the same compound?
Answer: 41,5 ± 1,6 x 10^4

Question: And the “Nombre de cellules x 10^4” value (ERYTH[…] K562; 0,1 µg/ml, 48 heures)?
Answer: 37,2 ± 4,5 x 10^4

Question: And the “Nombre de cellules x 10^4” value (ERYTH[…] K562; 0,01 µg/ml, 72 heures)?
Answer: 60,7 ± 5,8 x 10^4

Question: What about the “Nombre de cellules x 10^4” value (ERYTH[…] K562; 0,1 µg/ml, 72 heures) of the same compound?
Answer: 60,6 ± 5,4 x 10^4

Question: And the “Nombre de cellules x 10^4” value (ERYTH[…] K562; 1 µg/ml, 24 heures)?
Answer: 17,8 ± 3,3 x 10^4

Question: What about the “Nombre de cellules x 10^4” value (ERYTH[…] K562; 1 µg/ml, 48 heures) of the same compound?
Answer: 36,4 ± 1,8 x 10^4

Question: What about the “Nombre de cellules x 10^4” value (ERYTH[…] K562; 1 µg/ml, 72 heures) of the same compound?
Answer: 50,9 ± 4,3 x 10^4

Question: And the “Nombre de cellules x 10^4” value (ERYTH[…] K562; 5 µg/ml, 24 heures)?
Answer: 17,3 ± 1,4 x 10^4

Question: And the “Nombre de cellules x 10^4” value (ERYTH[…] K562; 5 µg/ml, 48 heures)?
Answer: 20,9 ± 2,1 x 10^4

Question: And the “Nombre de cellules x 10^4” value (ERYTH[…] K562; 5 µg/ml, 72 heures)?
Answer: 35,5 ± 2,0 x 10^4

Question: What about the “Nombre de cellules x 10^4” value (ERYTH[…] K562; 10 µg/ml, 24 heures) of the same compound?
Answer: 17,4 ± 0,9 x 10^4

Question: What about the “Nombre de cellules x 10^4” value (ERYTH[…] K562; 10 µg/ml, 48 heures) of the same compound?
Answer: 21,1 ± 0,2 x 10^4

Question: And the “Nombre de cellules x 10^4” value (ERYTH[…] K562; 10 µg/ml, 72 heures)?
Answer: 26,9 ± 2,3 x 10^4

Question: What about the “Nombre de cellules x 10^4” value (ERYTH[…] K562; 50 µg/ml, 24 heures) of the same compound?
Answer: 13,2 ± 1,7 x 10^4

Question: What about the “Nombre de cellules x 10^4” value (ERYTH[…] K562; 50 µg/ml, 48 heures) of the same compound?
Answer: 15,0 ± 1,5 x 10^4

Question: And the “Nombre de cellules x 10^4” value (ERYTH[…] K562; 50 µg/ml, 72 heures)?
Answer: 17,4 ± 1,3 x 10^4

Question: And the “Nombre de cellules x 10^4” value (ERYTH[…] K562; 100 µg/ml, 24 heures)?
Answer: 11,6 ± 0,4 x 10^4

Question: What about the “Nombre de cellules x 10^4” value (ERYTH[…] K562; 100 µg/ml, 48 heures) of the same compound?
Answer: 14,7 ± 0,1 x 10^4

Question: What about the “Nombre de cellules x 10^4” value (ERYTH[…] K562; 100 µg/ml, 72 heures) of the same compound?
Answer: 15,0 ± 0,8 x 10^4

Question: What about the “effet sur la croissance in vitro de l'érythroleucémie humaine K562 (result in words)” value (ERYTH[…] K562; in vitro, MYCLAz: même à dose toxique) of the same compound?
Answer: inhibe d'une manière très remarquable la croissance in vitro

Question: What about the “amplitude de la plage de doses à effet significatif” value (ERYTH[…] K562; ratio of highest to lowest significant dose) of the same compound?
Answer: ≥ 10 000

Question: And the “toxicity of the regimen (result in words)” value ([2]; 100 mg/kg i.p. j 1-9)?
Answer: TOXIQUE

Question: And the “T/C (%)” value ([2]; 200 mg/kg i.p. j 1,5,9)?
Answer: 105%

Question: And the “Volume moyen de la tumeur (cm^3 ± S.E.)” value ([2]; 200 mg/kg i.p. j 1,5,9, jour 15)?
Answer: 0,37±0,05* cm^3

Question: And the “Volume moyen de la tumeur (cm^3 ± S.E.)” value ([2]; 200 mg/kg i.p. j 1,5,9, jour 19)?
Answer: 1,70±0,24* cm^3

Question: What about the “Volume moyen de la tumeur (cm^3 ± S.E.)” value ([2]; 200 mg/kg i.p. j 1,5,9, jour 22) of the same compound?
Answer: 2,43±0,31* cm^3

Question: And the “Volume moyen de la tumeur (cm^3 ± S.E.)” value [2, 5]?
Answer: 3,71±0,46 cm^3

Question: And the “nombre d'animaux vivants/total” value [2, 5]?
Answer: 9/10

Question: What about the “toxicity of the regimen (result in words)” value ([2]; 200 mg/kg i.p. j 1-9) of the same compound?
Answer: TOXIQUE

Question: What about the “T/C (%)” value ([2]; 300 mg/kg i.p. j 1,5,9) of the same compound?
Answer: 94%

Question: What about the “Volume moyen de la tumeur (cm^3 ± S.E.)” value ([2]; 300 mg/kg i.p. j 1,5,9, jour 19) of the same compound?
Answer: 0,24±0,14* cm^3

Question: And the “Volume moyen de la tumeur (cm^3 ± S.E.)” value ([2]; 300 mg/kg i.p. j 1,5,9, jour 22)?
Answer: 0,45±0,28* cm^3

Question: What about the “Volume moyen de la tumeur (cm^3 ± S.E.)” value [2, 6] of the same compound?
Answer: 2,24±0,31 cm^3

Question: What about the “nombre d'animaux vivants/total” value [2, 6] of the same compound?
Answer: 3/10

Question: What about the “T/C (%)” value ([3]; 100 mg/kg i.p. x 9 (j 1 à 9)) of the same compound?
Answer: 141%

Question: What about the “T/C (%)” value ([3]; 150 mg/kg i.p. x 9 (j 1 à 9)) of the same compound?
Answer: 123%

Question: And the “T/C (%)” value ([3]; 200 mg/kg i.p. x 9 (j 1 à 9))?
Answer: 129%

Question: And the “T/C (%)” value (MELANOME B16; 100 mg/kg i.p. j 1-9)?
Answer: 103%

Question: What about the “Volume moyen de la tumeur (cm^3 ± S.E.)” value (MELANOME B16; 100 mg/kg i.p. j 1-9, jour 17) of the same compound?
Answer: 1,01±0,15 cm^3

Question: And the “Volume moyen de la tumeur (cm^3 ± S.E.)” value (MELANOME B16; 100 mg/kg i.p. j 1-9, jour 20)?
Answer: 1,71±0,13* cm^3

Question: What about the “Volume moyen de la tumeur (cm^3 ± S.E.)” value (MELANOME B16; 100 mg/kg i.p. j 1-9, jour 24) of the same compound?
Answer: 3,39±0,34* cm^3

Question: And the “Volume moyen de la tumeur (cm^3 ± S.E.)” value (MELANOME B16; 100 mg/kg i.p. j 1-9, jour 27)?
Answer: 3,75±0,29 cm^3

Question: What about the “nombre de souris vivantes/total” value (MELANOME B16; 100 mg/kg i.p. j 1-9, jour 27) of the same compound?
Answer: 9/10

Question: And the “T/C (%)” value (MELANOME B16; 200 mg/kg i.p. j 1,5,9)?
Answer: 120%

Question: What about the “Volume moyen de la tumeur (cm^3 ± S.E.)” value (MELANOME B16; 200 mg/kg i.p. j 1,5,9, jour 13) of the same compound?
Answer: 0,52±0,08* cm^3

Question: And the “Volume moyen de la tumeur (cm^3 ± S.E.)” value (MELANOME B16; 200 mg/kg i.p. j 1,5,9, jour 17)?
Answer: 1,17±0,14* cm^3

Question: And the “Volume moyen de la tumeur (cm^3 ± S.E.)” value (MELANOME B16; 200 mg/kg i.p. j 1,5,9, jour 20)?
Answer: 1,66±0,15* cm^3

Question: And the “Volume moyen de la tumeur (cm^3 ± S.E.)” value (MELANOME B16; 200 mg/kg i.p. j 1,5,9, jour 24)?
Answer: 3,72±0,29* cm^3

Question: And the “Volume moyen de la tumeur (cm^3 ± S.E.)” value (MELANOME B16; [7])?
Answer: 4,98±0,56 cm^3

Question: And the “nombre de souris vivantes/total” value (MELANOME B16; [7])?
Answer: 8/10

Question: What about the “T/C (%)” value (MELANOME B16; 200 mg/kg i.p. j 1-9) of the same compound?
Answer: 138%

Question: And the “Volume moyen de la tumeur (cm^3 ± S.E.)” value (MELANOME B16; 200 mg/kg i.p. j 1-9, jour 20)?
Answer: 0,12±0,08* cm^3

Question: And the “Volume moyen de la tumeur (cm^3 ± S.E.)” value (MELANOME B16; 200 mg/kg i.p. j 1-9, jour 24)?
Answer: 1,22±0,17* cm^3

Question: And the “Volume moyen de la tumeur (cm^3 ± S.E.)” value (MELANOME B16; 200 mg/kg i.p. j 1-9, jour 27)?
Answer: 2,06±0,23 cm^3

Question: What about the “nombre de souris vivantes/total” value (MELANOME B16; 200 mg/kg i.p. j 1-9, jour 27) of the same compound?
Answer: 9/9

Question: What about the “T/C (%)” value (MELANOME B16; 300 mg/kg i.p. j 1,5,9) of the same compound?
Answer: 104%

Question: What about the “Volume moyen de la tumeur (cm^3 ± S.E.)” value (MELANOME B16; 300 mg/kg i.p. j 1,5,9, jour 13) of the same compound?
Answer: 0,44±0,06* cm^3

Question: What about the “Volume moyen de la tumeur (cm^3 ± S.E.)” value (MELANOME B16; 300 mg/kg i.p. j 1,5,9, jour 17) of the same compound?
Answer: 1,72±0,12* cm^3

Question: What about the “Volume moyen de la tumeur (cm^3 ± S.E.)” value (MELANOME B16; 300 mg/kg i.p. j 1,5,9, jour 20) of the same compound?
Answer: 2,67±0,24* cm^3

Question: And the “Volume moyen de la tumeur (cm^3 ± S.E.)” value (MELANOME B16; 300 mg/kg i.p. j 1,5,9, jour 24)?
Answer: 5,36±0,42* cm^3

Question: And the “Volume moyen de la tumeur (cm^3 ± S.E.)” value (MELANOME B16; [8])?
Answer: 5,96±0,22 cm^3

Question: What about the “nombre de souris vivantes/total” value (MELANOME B16; [8]) of the same compound?
Answer: 6/10

Question: And the solubility ([4]; serum, sérum physiologique, read-out: solubilité dans le sérum physiologique)?
Answer: > 20 mg/mL

Question: What about the solubility ([4]; water, eau, read-out: solubilité dans l'eau) of the same compound?
Answer: > 20 mg/mL
